Results from patent publication US20240352010A1, “SUBSTITUTED 1,2,4-THIADIAZOLYL NICOTINAMIDES, SALTS OR N-OXIDES THEREOF AND THEIR USE AS HERBICIDALLY ACTIVE SUBSTANCES” (BayerAktiengesellschaft, priority 2021, published 2024).

Key:
Assay type in all cases: in vivo
[1] = tested on: Amaranthus retroflexus (AMARE); assay: Herbicidal pre-emergence action, AMARE; settings: 1280 g/ha, visual grading after ca. 3 weeks vs untreated controls (Table A11)
Excerpt: (§1) Seeds of mono- and dicotyledonous weed plants were sown in plastic pots (double sowings with one species of mono- and one species of dicotyledonous weed plants per pot), in sandy loam, and covered with soil. The compounds according to the invention, formulated in the form of wettable powders (WP) or as emulsifiable concentrates (EC), were applied to the surface of the covering soil as an aqueous suspension or as an emulsion, with the addition of 0.5% of an additive, at an application rate of 600 litres of water per hectare (converted). Following treatment, the pots were placed in a greenhouse and kept under optimum growth conditions for the test plants. The visual grading of the damage to the test plants is carried out after ca. 3 weeks in comparison to untreated controls (herbicidal effect in percent (%): 100% effect=plants have died, 0% effect=as control plants). Seeds of mono- and dicotyledonous weed plants were sown in plastic pots (double sowings with one species of mono- and one species of dicotyledonous weed plants per pot), in sandy loam, and covered with soil. The compounds according to the invention, formulated in the form of wettable powders (WP) or as emulsifiable concentrates (EC), were applied to the surface of the covering soil as an aqueous suspension or as an emulsion, with the addition of 0.5% of an additive, at an application rate of 600 litres of water per hectare (converted). Following treatment, the pots were placed in a greenhouse and kept under optimum growth conditions for the test plants. The visual grading of the damage to the test plants is carried out after ca. 3 weeks in comparison to untreated controls (herbicidal effect in percent (%): 100% effect=plants have died, 0% effect=as control plants).

Kochia scoparia (KCHSC) [2] = assay: Herbicidal pre-emergence action, KCHSC; settings: 1280 g/ha, visual grading after ca. 3 weeks vs untreated controls (Table A4)
Excerpt: as §1

Lolium rigidum (LOLRI) = assay: Herbicidal pre-emergence action, LOLRI
Excerpt: as §1

[3] = tested on: Matricaria inodora (MATIN); assay: Herbicidal pre-emergence action, MATIN
Excerpt: as §1

Poa annua (POAAN) [4] = assay: Herbicidal pre-emergence action, POAAN
Excerpt: as §1

Setaria viridis (SETVI) = assay: Herbicidal pre-emergence action, SETVI
Excerpt: as §1

Stellaria media (STEME) [5] = assay: Herbicidal pre-emergence action, STEME
Excerpt: as §1

[6] = tested on: Abutilon theophrasti (ABUTH); assay: Herbicidal post-emergence action, ABUTH; settings: 1280 g/ha, assessed visually after ca. 3 weeks vs untreated controls (Table B1)
Excerpt: (§2) Seeds of mono- and dicotyledonous weed plants were sown in plastic pots (double sowings with one species of mono- and one species of dicotyledonous weed plants per pot), in sandy loam, covered with soil and grown under controlled growth conditions. 2 to 3 weeks after sowing, the test plants were sprayed in the single-leaf stage. The compounds according to the invention, formulated in the form of wettable powders (WP) or as emulsifiable concentrates (EC), were sprayed onto the green plant parts as an aqueous suspension or as an emulsion, with the addition of 0.5% of an additive, at an application rate of 600 litres of water per hectare (converted). The test plants were placed in the greenhouse for ca. 3 weeks under optimum growth conditions, and then the effect of the preparations is assessed visually in comparison with untreated controls (herbicidal effect in percent (%): 100% effect=plants have died, 0% effect=as control plants).

[7] = tested on: Amaranthus retroflexus (AMARE); assay: Herbicidal post-emergence action, AMARE
Excerpt: as §2, with “plants).[…]” for “plants).”

[8] = tested on: Digitaria sanguinalis (DIGSA); assay: Herbicidal post-emergence action, DIGSA; settings: 1280 g/ha, assessed visually after ca. 3 weeks vs untreated controls (Table B12)
Excerpt: as §2

Kochia scoparia (KCHSC) [9] = assay: Herbicidal post-emergence action, KCHSC
Excerpt: as §2, with “plants).[…]” for “plants).”

Poa annua (POAAN) [10] = assay: Herbicidal post-emergence action, POAAN
Excerpt: as §2, with “plants).[…]” for “plants).”

Stellaria media (STEME) [11] = assay: Herbicidal post-emergence action, STEME
Excerpt: as §2, with “plants).[…]” for “plants).”

Veronica persica (VERPE) = assay: Herbicidal post-emergence action, VERPE
Excerpt: as §2, with “plants).[…]” for “plants).”

[12] = tested on: Echinochloa crus-galli (ECHCG); assay: Herbicidal post-emergence action, ECHCG; settings: 1280 g/ha, assessed visually after ca. 3 weeks vs untreated controls (Table B3)
Excerpt: as §2, with “plants).[…]” for “plants).”

[13] = tested on: Matricaria inodora (MATIN); assay: Herbicidal post-emergence action, MATIN
Excerpt: as §2, with “plants).[…]” for “plants).”

[14] = 1280 g/ha, visual grading after ca. 3 weeks vs untreated controls (Table A5)
[15] = 320 g/ha, visual grading after ca. 3 weeks vs untreated controls (Table C3)
[16] = 1280 g/ha, visual grading after ca. 3 weeks vs untreated controls (Table A6)
[17] = 1280 g/ha, visual grading after ca. 3 weeks vs untreated controls (Table A8)
[18] = 320 g/ha, visual grading after ca. 3 weeks vs untreated controls (Table C6)
[19] = 1280 g/ha, visual grading after ca. 3 weeks vs untreated controls (Table A9)
[20] = 1280 g/ha, assessed visually after ca. 3 weeks vs untreated controls (Table B11)
[21] = 1280 g/ha, assessed visually after ca. 3 weeks vs untreated controls (Table B4)
[22] = 1280 g/ha, assessed visually after ca. 3 weeks vs untreated controls (Table B8)
[23] = 1280 g/ha, assessed visually after ca. 3 weeks vs untreated controls (Table B9)
[24] = 1280 g/ha, assessed visually after ca. 3 weeks vs untreated controls (Table B10)

SMILES	herbicidal effect in percent, AMARE [1] [%]	herbicidal effect in percent, KCHSC (Kochia scoparia (KCHSC) [2]) [%]	herbicidal effect in percent, LOLRI (Lolium rigidum (LOLRI); [14]) [%]	herbicidal effect in percent, MATIN [3, 15] [%]	herbicidal effect in percent, MATIN [3, 16] [%]	herbicidal effect in percent, SETVI (Setaria viridis (SETVI); [17]) [%]	herbicidal effect in percent, STEME (Stellaria media (STEME) [5]; [18]) [%]	herbicidal effect in percent, STEME (Stellaria media (STEME) [5]; [19]) [%]	herbicidal effect in percent, AMARE [7, 20] [%]	herbicidal effect in percent, KCHSC (Kochia scoparia (KCHSC) [9]; [21]) [%]	herbicidal effect in percent, POAAN (Poa annua (POAAN) [10]; [22]) [%]	herbicidal effect in percent, STEME (Stellaria media (STEME) [11]; [23]) [%]	herbicidal effect in percent, VERPE (Veronica persica (VERPE); [24]) [%]	other results
O=C(Nc1ncns1)c1c(C2CC2)ccnc1C(F)(F)F [Example I-006]	90	90	90	90	100	90	100	100	100	100	90	100	90	herbicidal effect in percent, LOLRI (Lolium rigidum (LOLRI); 320 g/ha, visual grading after ca. 3 weeks vs untreated controls (Table C2)): 90%; herbicidal effect in percent, POAAN (Poa annua (POAAN) [4]; 320 g/ha, visual grading after ca. 3 weeks vs untreated controls (Table C4)): 90%; herbicidal effect in percent, POAAN (Poa annua (POAAN) [4]; 1280 g/ha, visual grading after ca. 3 weeks vs untreated controls (Table A7)): 90%; herbicidal effect in percent, ABUTH [6]: 90%; herbicidal effect in percent, AMARE ([7]; 320 g/ha, assessed visually after ca. 3 weeks vs untreated controls (Table D6)): 90%; herbicidal effect in percent, DIGSA [8]: 90%; herbicidal effect in percent, KCHSC (Kochia scoparia (KCHSC) [9]; dosage printed 1280 g/ha in Table D1, assessed visually after ca. 3 weeks vs untreated controls): 90%; herbicidal effect in percent, STEME (Stellaria media (STEME) [11]; dosage printed 1280 g/ha in Table D4, assessed visually after ca. 3 weeks vs untreated controls): 90%
C=C(C)c1ccnc(Cl)c1C(=O)Nc1ncns1 [Example I-009]	–	–	–	–	100	100	–	90	90	–	–	90	–	herbicidal effect in percent, SETVI (Setaria viridis (SETVI); 320 g/ha, visual grading after ca. 3 weeks vs untreated controls (Table C5)): 90%
O=C(Nc1nc(Br)ns1)c1c(C2CC2)ccnc1Cl [Example I-010]	90	90	90	90	100	–	–	100	90	–	90	90	90	herbicidal effect in percent, ECHCG [12]: 90%; herbicidal effect in percent, MATIN ([13]; 320 g/ha, assessed visually after ca. 3 weeks vs untreated controls (Table D2)): 90%; herbicidal effect in percent, MATIN ([13]; 1280 g/ha, assessed visually after ca. 3 weeks vs untreated controls (Table B6)): 90%; herbicidal effect in percent, POAAN (Poa annua (POAAN) [10]; 320 g/ha, assessed visually after ca. 3 weeks vs untreated controls (Table D3)): 90%; herbicidal effect in percent, STEME (Stellaria media (STEME) [11]; 320 g/ha, assessed visually after ca. 3 weeks vs untreated controls (Table D4)): 90%; herbicidal effect in percent, VERPE (Veronica persica (VERPE); 320 g/ha, assessed visually after ca. 3 weeks vs untreated controls (Table D5)): 90%
O=C(Nc1ncns1)c1c(C2CC2(F)F)ccnc1F (stereo not shown) [Example I-002, 4-(2,2-difluorocyclopropyl)-2-fluoro-N-(1,2,4-thiadiazol-5-yl)pyridine-3-carboxamide]	100	–	–	90	100	–	90	90	90	90	–	90	90	–
